A short description of data set [1]: Physical form: liquid crystalline behaviour in aqueous solution. Particulars: for Dye (1) at a dye concentration of above about 25% by weight. Type of data set: physicochemical. From the text:
This is anticipated to correspond to enhanced stability against precipitation and reduced dye degradation for concentrated solutions containing the compounds used in the present invention. The difference in liquid crystalline behaviour is surprising given the structural similarity of Dye (1) and Comparative Dye (1).

A short description of data set [2]: Solubility of dye in water. The format is physicochemical.

For `O=C(O)c1cc(/N=N/c2ccc(Nc3nc(NCCO)nc(Nc4ccc(/N=N/c5cc(S(=O)(=O)O)c6cccc(S(=O)(=O)O)c6c5)cc4)n3)cc2)cc(C(=O)O)c1` [Comparative Dye (1), reference compound], the liquid crystalline behaviour entry in data set [1] is recorded as “no liquid crystalline behaviour”. Further, the solubility in water in data set [2] is on record as 15 % of dye by weight.

Consider `O=C(O)c1cc(/N=N/c2ccc(Nc3nc(Nc4ccc(/N=N/c5cc(S(=O)(=O)O)c6cccc(S(=O)(=O)O)c6c5)cc4)nc(N(CCO)CCO)n3)cc2)cc(C(=O)O)c1` [Dye (1)], for which the liquid crystalline behaviour entry in data set [1] is recorded as “exhibited liquid crystalline characteristics”. Besides, the solubility in water in data set [2] is 30 % of dye by weight. The “solubility in water relative to Comparative Dye (1)” value in data set [2] (ratio to Comparative Dye (1)) was “twice”.

These data come from patent US7927411B2, “Compound, ink, process and use” (Fujifilm Imaging Colorants Limited, priority 2007, dated 2011).
